Here are results for 47 molecules from patent US20120220567A1, “BENZO-FUSED OXAZEPINE COMPOUNDS AS STEAROYL-COENZYME A DELTA-9 DESATURASE INHIBITORS” (priority 2009, published 2012).

Read-outs that look alike come from different tables or passages of the source. Some results are limits rather than exact numbers.

The assay deals with T1, SCD-1 (Homo sapiens, UniProt O00767).
T1 construct: 50 μg of protein from a HepG2 cell P2 pellet; endogenous in cells; host or cells: HepG2 cells (P2 pellet)
T1 sequence (O00767 1-359): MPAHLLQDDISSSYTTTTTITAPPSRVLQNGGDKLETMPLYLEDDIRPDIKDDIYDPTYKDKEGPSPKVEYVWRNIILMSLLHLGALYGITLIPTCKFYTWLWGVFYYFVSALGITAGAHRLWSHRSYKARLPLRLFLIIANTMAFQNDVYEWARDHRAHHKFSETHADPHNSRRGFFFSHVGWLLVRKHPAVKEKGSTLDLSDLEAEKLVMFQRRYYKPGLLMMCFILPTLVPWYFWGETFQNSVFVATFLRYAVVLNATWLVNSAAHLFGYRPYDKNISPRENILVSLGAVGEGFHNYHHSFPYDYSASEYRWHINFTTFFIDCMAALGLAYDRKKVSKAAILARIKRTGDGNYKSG
Kind of assay: Stearoyl-CoA desaturase assay (HepG2 cell P2 pellet). Format: biochemical. The conditions noted are these: protein from HepG2 cell P2 pellet, 20 μM stearoyl-CoA, 15 min at 25° C., read-out: Ave IC50. On the procedure:
Stearoyl-CoA desaturase assays were performed in according to Talamo and Bloch. […] Assays were run in triplicate in 100-μl volumes of 100 mM TrisHCl, pH 7.3, containing 20 μM stearoyl-CoA, 2 mM β-NADH, and 50 μg of protein from a HepG2 cell P2 pellet. Since SCD-1 is the only isoform of SCD expressed in these cells, the assay is specific for SCD-1 with these cells as the source of enzyme. Reaction mixtures were incubated fifteen minutes at 25° C. and reactions were then stopped with a volume of trichloroacetic acid giving a final concentration of 0.2%. After five minutes, a 90-μl volume was transferred to a Millipore Multiscreen HTS 96-well filtration plate (MSHVN4B50) containing 125 μl of 10% charcoal in each well, to which vacuum had been previously applied. Plates were shaken fifteen minutes and then filtered into a collection plate. Fifty-μI volumes of filtrate were transferred to another plate containing 150 μl of MicroScint 40 for counting on a TopCount scintillation counter.

[1] abbreviates: Table 1, compounds of formula (Ia).
The mark [2] stands for this setting: Table 2, compounds of formula (Ib).

In general, IC50 refers to the concentration at which inhibition is half-maximal. Turning to `CC(=O)NCC(=O)N1CCC2(CC1)CCN(Cc1cccc(C(F)(F)F)c1)c1ccccc1O2` [Compound 1, N-(2-oxo-2-(5-(3-(trifluoromethyl)benzyl)-4,5-dihydro-3H-spiro[benzo[b][1,4]oxazepine-2,4′-piperidine]-1′-yl)ethyl)acetamide], the IC50 under setting [1] is greater than 10000 nM. On the same count and under the same terms, the same measure for `CCc1ccc(CN2CCC3(CCN(C(=O)C(CO)NC(C)=O)CC3)Oc3ccccc32)cc1` (centres unmarked) [Compound 2]: greater than 10000 nM; for `CCc1ccc(CN2CCC3(CCN(C(=O)[C@H](C)NC(C)=O)CC3)Oc3ccccc32)cc1` [Compound 3]: greater than 10000 nM; for `CCc1ccc(CN2CCC3(CCN(C(=O)[C@@H](C)NC(C)=O)CC3)Oc3ccccc32)cc1` [Compound 4]: 500 to 10000 nM. `CCc1ccc(CN2CCC3(CCN(C(=O)CNC(=O)C4CC4)CC3)Oc3ccccc32)cc1` [Compound 5]: under setting [1], the IC50 fell in the range of 500 to 10000 nM. Take `CCc1ccc(CN2CCC3(CCN(C(=O)CNC(=O)C(C)C)CC3)Oc3ccccc32)cc1` [Compound 6]: the IC50 under setting [1] was 500 to 10000 nM. As to `CCc1ccc(CN2CCC3(CCN(C(=O)CNC(=O)CC4CC4)CC3)Oc3ccccc32)cc1` [Compound 7], the IC50 under setting [1] was in the range of 50 to 499 nM. Regarding `CCc1ccc(CN2CCC3(CCN(C(=O)CNC(=O)C[C@@H](C)O)CC3)Oc3ccccc32)cc1` [Compound 8], the IC50 under setting [1] was 500 to 10000 nM. Same read-out and setting: to `CCc1ccc(CN2CCC3(CCN(C(=O)CNC(=O)CCN(C)C)CC3)Oc3ccccc32)cc1` [Compound 9] belongs greater than 10000 nM.

Turning to `CCc1ccc(CN2CCC3(CCN(C(=O)CNC(=O)Cc4ccccn4)CC3)Oc3ccccc32)cc1` [Compound 10], under setting [1], the IC50 is greater than 10000 nM. Turning to `CCc1ccc(CN2CCC3(CCN(C(=O)CNC(=O)Cc4cn(C)cn4)CC3)Oc3ccccc32)cc1` [Compound 11], the IC50 under setting [1] lay within 500 to 10000 nM. Regarding `CC(=O)NCC(=O)N1CCC2(CC1)CCN(Cc1ccc(C(C)(C)C)cc1)c1cccc(Cl)c1O2` [Compound 15], the IC50 under setting [1] lay in the range of 500 to 10000 nM. As to `COc1ccc(CN2CCC3(CCN(C(=O)CNC(C)=O)CC3)Oc3ccccc32)cc1` [Compound 16], under setting [1], the IC50 lay within 500 to 10000 nM.

With `CC(=O)NCC(=O)N1CCC2(CC1)CCN(Cc1ccc(Cl)cc1)c1ccccc1O2` [Compound 17], the IC50 under setting [1] was greater than 10000 nM.

As for `CC(=O)NCC(=O)N1CCC2(CC1)CCN(Cc1ccc(OC(C)(C)C)cc1)c1ccccc1O2` [Compound 18], under setting [1], the IC50 was greater than 10000 nM.

As for `CC(=O)NCC(=O)N1CCC2(CC1)CCN(Cc1ccccc1F)c1ccccc1O2` [Compound 19], under setting [1], the IC50 was greater than 10000 nM. For the molecule `CC(=O)NCC(=O)N1CCC2(CC1)CCN(Cc1ccc(C)s1)c1ccccc1O2` [Compound 20], under setting [1], the IC50 is greater than 10000 nM. On to `CC(=O)NCC(=O)N1CCC2(CC1)CCN(Cc1ccc(C#N)cc1)c1ccccc1O2` [Compound 21], for which the IC50 under setting [1] was in the range of 500 to 10000 nM. For the molecule `CC(=O)NCC(=O)N1CCC2(CC1)CCN(Cc1ccc(OC(F)(F)F)cc1)c1ccccc1O2` [Compound 22], the IC50 under setting [1] fell in the range of 500 to 10000 nM. As for `CC(=O)NCC(=O)N1CCC2(CC1)CCN(Cc1ccc(C#N)cc1)c1ccccc1O2` [Compound 23], the IC50 under setting [1] was greater than 10000 nM. Take `COc1ccccc1CN1CCC2(CCN(C(=O)CNC(C)=O)CC2)Oc2ccccc21` [Compound 24]: the IC50 under setting [1] was in the range of 500 to 10000 nM.

On to `COC(=O)c1cccc(CN2CCC3(CCN(C(=O)CNC(C)=O)CC3)Oc3ccccc32)c1` [Compound 25], for which the IC50 under setting [1] lay within 500 to 10000 nM. Take `CC(=O)NCC(=O)N1CCC2(CC1)CCN(Cc1cccc(Cl)c1)c1ccccc1O2` [Compound 26]: the IC50 under setting [1] lay within 500 to 10000 nM. As for `CC(=O)NCC(=O)N1CCC2(CC1)CCN(Cc1ccc(F)cc1)c1ccccc1O2` [Compound 27], under setting [1], the IC50 lay within 50 to 499 nM. On to `CC(=O)NCC(=O)N1CCC2(CC1)CCN(Cc1ccccc1Cl)c1ccccc1O2` [Compound 28], for which the IC50 under setting [1] is 500 to 10000 nM. Turning to `CC(=O)NCC(=O)N1CCC2(CC1)CCN(Cc1cccc(F)c1)c1ccccc1O2` [Compound 29], the half-maximal inhibitory concentration (IC50) under setting [1] was in the range of 500 to 10000 nM.

In the case of `CC(=O)NCC(=O)N1CCC2(CC1)CCN(Cc1ccccc1)c1ccccc1O2` [Compound 30], the IC50 under setting [1] was in the range of 500 to 10000 nM.

For the molecule `COc1ccc(CN2CCC3(CCN(C(=O)CNC(C)=O)CC3)Oc3ccccc32)cc1F` [Compound 31], the IC50 under setting [1] was 500 to 10000 nM. Still for that read-out and setting: to `CC(=O)NCC(=O)N1CCC2(CC1)CCN(Cc1cccc(O)c1)c1ccccc1O2` [Compound 32] belongs 500 to 10000 nM. With `CC(=O)NCC(=O)N1CCC2(CC1)CCN(Cc1ccc(Cl)s1)c1ccccc1O2` [Compound 33], the concentration for half-maximal inhibition (IC50) under setting [1] was 500 to 10000 nM. On to `CC(=O)NCC(=O)N1CCC2(CC1)CCN(Cc1ccc(Br)s1)c1ccccc1O2` [Compound 34], for which the IC50 under setting [1] was 500 to 10000 nM. For `CC(=O)NCC(=O)N1CCC2(CC1)CCN(Cc1ccc(C)cc1)c1ccccc1O2` [Compound 35], the IC50 under setting [1] lay in the range of 500 to 10000 nM. On the same count and under the same terms, to `CC(=O)NCC(=O)N1CCC2(CC1)CCN(Cc1cccc(OC(F)(F)F)c1)c1ccccc1O2` [Compound 36] belongs 500 to 10000 nM; to `CC(=O)NCC(=O)N1CCC2(CC1)CCN(Cc1ccccc1Br)c1ccccc1O2` [Compound 37], 500 to 10000 nM; to `CC(=O)NCC(=O)N1CCC2(CC1)CCN(Cc1cccc(Br)c1)c1ccccc1O2` [Compound 39], 500 to 10000 nM. As for `CC(=O)NCC(=O)N1CCC2(CC1)CCN(Cc1ccc(Br)cc1)c1ccccc1O2` [Compound 40], the IC50 under setting [1] was 500 to 10000 nM. Consider `CC(=O)NCC(=O)N1CCC2(CC1)CCN(Cc1ccccc1C)c1ccccc1O2` [Compound 41], for which the 50% inhibitory concentration (IC50) under setting [1] was in the range of 500 to 10000 nM. Consider `CC(C)(C)c1ccc(CN2CCC3(CCN(C(=O)CNC(=O)c4cccs4)CC3)Oc3ccccc32)cc1` [Compound 44], for which the IC50 under setting [1] lay within 50 to 499 nM. Turning to `CC(=O)NCC(=O)N1CCC2(CC1)CCN(Cc1cccc(C(F)(F)F)c1)c1cccc(F)c1O2` [Compound 45], the IC50 under setting [1] is 500 to 10000 nM. With `CC(=O)NCC(=O)N1CCC2(CC1)CCN(Cc1ccc(C(C)(C)C)cc1)c1cccc(F)c1O2` [Compound 46], the IC50 under setting [1] is 500 to 10000 nM. Same read-out and setting: to `CCc1ccc(CN2CCC3(CCN(C(=O)CNC(C)=O)CC3)Oc3c(F)cccc32)cc1` [Compound 47] belongs 500 to 10000 nM. As for `COC(=O)c1cnc(N2CCC3(CC2)CCN(Cc2cccc(C(F)(F)F)c2)c2ccccc2O3)s1` [Compound 50, methyl 2-(5-(3-(trifluoromethyl)benzyl)-4,5-dihydro-3H-spiro[benzo[b][1,4]oxazepine-2,4′-piperidine]-1′-yl)thiazole-5-carboxylate], under setting [2], the IC50 is 0.5 to 49 nM.

Take `O=C(NCCC1CC1)c1cnc(N2CCC3(CC2)CCN(Cc2cccc(C(F)(F)F)c2)c2ccccc2O3)s1` [Compound 51]: the IC50 under setting [2] was in the range of 500 to 10000 nM.

On to `NC(=O)c1cnc(N2CCC3(CC2)CCN(Cc2cccc(C(F)(F)F)c2)c2ccccc2O3)s1` [Compound 52], for which the IC50 under setting [2] lay in the range of 0.5 to 49 nM. Regarding `FC(F)(F)c1cccc(CN2CCC3(CCN(c4ncc(Br)s4)CC3)Oc3ccccc32)c1` [Compound 53], the IC50 under setting [2] was 500 to 10000 nM. With `O=C(O)c1cnc(N2CCC3(CC2)CCN(Cc2cccc(C(F)(F)F)c2)c2ccccc2O3)s1` [Compound 54, 2-(5-(3-(trifluoromethyl)benzyl)-4,5-dihydro-3H-spiro[benzo[b][1,4]oxazepine-2,4′-piperidine]-1′-yl)thiazole-5-carboxylic Acid], the IC50 under setting [2] lay within 0.5 to 49 nM. `O=C(c1cnc(N2CCC3(CC2)CCN(Cc2cccc(C(F)(F)F)c2)c2ccccc2O3)s1)N1CCCC1` [Compound 56]: the IC50 under setting [2] was 500 to 10000 nM.
